Results published in patent publication US9012651B2, “TRPV3 modulators” (AbbVie Inc., priority 2011, dated 2015).

Target: human TRPV3 receptors (Homo sapiens (Human), UniProt Q8NET8)
Assay: Calcium flux assay (FLIPR TETRA), inhibition of the 2-APB response
Format: cell-based
Settings: recombinant HEK293 cells stably expressing TRPV3, Calcium-4 dye, 2-APB at its EC80
In short: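 Responses are given relative to the maximal 2-APB signal in the absence of compound, using peak fluorescence over baseline. Measured by FLIPR Tetra calcium flux in stable human and mouse TRPV3 HEK293 cells after 90-120 min dark dye incubation.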

human TRPV3 receptors, sequence (Q8NET8 whole entry): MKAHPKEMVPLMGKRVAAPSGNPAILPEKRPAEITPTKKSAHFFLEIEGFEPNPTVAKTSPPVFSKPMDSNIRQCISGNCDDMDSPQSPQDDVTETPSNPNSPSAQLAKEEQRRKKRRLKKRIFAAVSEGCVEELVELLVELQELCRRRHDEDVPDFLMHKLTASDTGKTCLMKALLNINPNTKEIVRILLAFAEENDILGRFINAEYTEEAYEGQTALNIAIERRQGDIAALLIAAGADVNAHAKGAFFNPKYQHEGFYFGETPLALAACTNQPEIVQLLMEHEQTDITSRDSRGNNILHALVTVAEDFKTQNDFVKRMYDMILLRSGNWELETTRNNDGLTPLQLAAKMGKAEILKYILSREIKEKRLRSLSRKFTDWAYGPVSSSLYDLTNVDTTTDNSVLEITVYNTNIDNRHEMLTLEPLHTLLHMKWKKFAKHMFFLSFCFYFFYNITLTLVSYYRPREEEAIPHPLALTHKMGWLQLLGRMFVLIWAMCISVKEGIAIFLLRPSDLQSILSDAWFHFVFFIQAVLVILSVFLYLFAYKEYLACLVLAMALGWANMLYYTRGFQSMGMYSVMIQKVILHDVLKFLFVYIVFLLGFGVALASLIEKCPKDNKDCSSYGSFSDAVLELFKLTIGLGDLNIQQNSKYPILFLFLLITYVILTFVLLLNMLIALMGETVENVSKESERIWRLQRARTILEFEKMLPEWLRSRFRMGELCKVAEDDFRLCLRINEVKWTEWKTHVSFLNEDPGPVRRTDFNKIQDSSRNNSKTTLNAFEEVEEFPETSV

Q: With `CC(C)[C@H](CO)NCc1nc(N2CCc3cccc(F)c3C2)ccc1F` [Example 99, (2R)-2-({[3-fluoro-6-(8-fluoro-3,4-dihydroisoquinolin-2(1H)-yl)pyridin-2-yl]methyl}amino)-3-methylbutan-1-ol] as the compound, how does the IC50 read?
A: 140 nM

Q: Which IC50 does the source give for `CC(C)[C@H](CO)NCc1nc(N2CCc3cc(Cl)ccc3C2)ccc1F` [Example 101, (2R)-2-({[6-(6-chloro-3,4-dihydroisoquinolin-2(1H)-yl)-3-fluoropyridin-2-yl]methyl}amino)-3-methylbutan-1-ol] here?
A: 500 nM

Q: Which IC50 does the source give for `CC(C)[C@H](CO)NCc1nc(N2CCc3c(cccc3C(F)(F)F)C2)ccc1F` [Example 102, (2R)-2-[({3-fluoro-6-[5-(trifluoromethyl)-3,4-dihydroisoquinolin-2(1H)-yl]-pyridin-2-yl}methyl)amino]-3-methylbutan-1-ol] here?
A: 350 nM

Q: `CC(C)[C@H](CO)NCc1nc(N2CCc3ccc(C(F)(F)F)cc3C2)ccc1F` [Example 103, (2R)-2-[({3-fluoro-6-[7-(trifluoromethyl)-3,4-dihydroisoquinolin-2(1H)-yl]-pyridin-2-yl}methyl)amino]-3-methylbutan-1-ol] was tested. Which IC50 did it give?
A: 260 nM

Q: For `CC(C)[C@@H](NCc1nc(-c2ccc(C(F)(F)F)cc2)ccc1F)C(C)(C)O` [Example 105, (3R)-3-[({3-fluoro-6-[4-(trifluoromethyl)phenyl]pyridin-2-yl}methyl)amino]-2,4-dimethylpentan-2-ol], which IC50 is on record?
A: 2760 nM

Q: How did the IC50 turn out when `CC(C)[C@@H](NCc1nc(-c2ccc(C(F)(F)F)nc2)ccc1F)C(C)(C)O` [Example 106, (3R)-3-({[5-fluoro-6′-(trifluoromethyl)-2,3′-bipyridin-6-yl]methyl}amino)-2,4-dimethylpentan-2-ol] was run?
A: 1260 nM

Q: For `CC(C)[C@@H](NCc1nc(-c2ccc(C(F)(F)F)cc2)ccc1F)C(C)O` (stereo partly drawn) [Example 107, (3R)-3-[({3-fluoro-6-[4-(trifluoromethyl)phenyl]pyridin-2-yl}methyl)amino]-4-methylpentan-2-ol], which IC50 is on record?
A: 700 nM

Q: `CC(C)[C@@H](NCc1nc(-c2ccc(C(F)(F)F)nc2)ccc1F)C(C)O` (stereo partly drawn) [Example 108, (3R)-3-({[5-fluoro-6′-(trifluoromethyl)-2,3′-bipyridin-6-yl]methyl}amino)-4-methylpentan-2-ol] was tested. Which IC50 did it give?
A: 540 nM

Q: For `CC(C)[C@H](CO)NCc1ccc(F)c(-c2ccc(C(F)(F)F)nc2)n1` [Example 109, (2R)-2-({[3-fluoro-6′-(trifluoromethyl)-2,3′-bipyridin-6-yl]methyl}amino)-3-methylbutan-1-ol], which IC50 is on record?
A: 3590 nM

Q: `CC(C)[C@H](CO)NCc1nc(-c2ccc(C(F)(F)F)nc2)ccc1Cl` [Example 110, (2R)-2-({[5-chloro-6′-(trifluoromethyl)-2,3′-bipyridin-6-yl]methyl}amino)-3-methylbutan-1-ol] was tested. Which IC50 did it give?
A: 630 nM

Q: `Cc1ccc(-c2ccc(C(F)(F)F)nc2)nc1CN[C@@H](CO)C(C)C` [Example 111, (2R)-3-methyl-2-({[5-methyl-6′-(trifluoromethyl)-2,3′-bipyridin-6-yl]methyl}amino)butan-1-ol] was tested. Which IC50 did it give?
A: 1070 nM

Q: `COc1ccc(-c2ccc(C(F)(F)F)nc2)nc1CN[C@@H](CO)C(C)C` [Example 112, (2R)-2-({[5-methoxy-6′-(trifluoromethyl)-2,3′-bipyridin-6-yl]methyl}amino)-3-methylbutan-1-ol] was tested. Which IC50 did it give?
A: 15300 nM

Q: `CC(C)[C@H](CO)NCc1nc(-c2cnc(C(F)(F)F)nc2)ccc1F` [Example 113, (2R)-2-[({3-fluoro-6-[2-(trifluoromethyl)pyrimidin-5-yl]pyridin-2-yl}methyl)amino]-3-methylbutan-1-ol] was tested. Which IC50 did it give?
A: 2650 nM

Q: For `CC(C)[C@H](CO)NCc1nc(-c2cnc(OCC(F)(F)F)nc2)ccc1F` [Example 114, (2R)-2-[({3-fluoro-6-[2-(2,2,2-trifluoroethoxy)pyrimidin-5-yl]pyridin-2-yl}methyl)amino]-3-methylbutan-1-ol], which IC50 is on record?
A: 2330 nM

Q: With `CC[C@@H](NCc1nc(-c2ccc(C(F)(F)F)nc2)ccc1F)C(C)O` (stereo partly drawn) [Example 115, (3R)-3-({[5-fluoro-6′-(trifluoromethyl)-2,3′-bipyridin-6-yl]methyl}amino)pentan-2-ol] as the compound, how does the IC50 read?
A: 510 nM

Q: With `CC(C)[C@@H](NCc1nc(-c2ccc(C(F)(F)F)cc2)ccc1F)C(N)=O` [Example 116, (R)-2-((3-fluoro-6-(4-(trifluoromethyl)phenyl)pyridin-2-yl)methylamino)-3-methylbutanamide] as the compound, how does the IC50 read?
A: > 20000 nM

Q: Which IC50 does the source give for `CC(C)[C@@H](NCc1nc(-c2ccc(C(F)(F)F)nc2)ccc1F)C(N)=O` [Example 117, (R)-2-((5-fluoro-6′-(trifluoromethyl)-2,3′-bipyridin-6-yl)methylamino)-3-methylbutanamide] here?
A: > 20000 nM

Q: For `CC(C)[C@H](CO)NCc1cc(C(F)(F)F)cc(-c2ccc(C(F)(F)F)nc2)n1` [Example 118, (2R)-2-({[4,6′-bis(trifluoromethyl)-2,3′-bipyridin-6-yl]methyl}amino)-3-methylbutan-1-ol], which IC50 is on record?
A: > 20000 nM

Q: Which IC50 does the source give for `CC(C)[C@H](NCc1nc(-c2ccc(C(F)(F)F)nc2)ccc1F)C(N)=O` [Example 119, (S)-2-((5-fluoro-6′-(trifluoromethyl)-2,3′-bipyridin-6-yl)methylamino)-3-methylbutanamide] here?
A: > 20000 nM

Q: `C[C@@H](O)[C@H](NCc1nc(-c2ccc(C(F)(F)F)nc2)ccc1F)C(N)=O` [Example 120, (2S,3R)-2-((5-fluoro-6′-(trifluoromethyl)-2,3′-bipyridin-6-yl)methylamino)-3-hydroxybutanamide] was tested. Which IC50 did it give?
A: > 20000 nM

Q: `C[C@@H](O)[C@@H](CO)NCc1nc(-c2ccc(C(F)(F)F)nc2)ccc1F` [Example 121, (2R,3R)-2-({[5-fluoro-6′-(trifluoromethyl)-2,3′-bipyridin-6-yl]methyl}amino)butane-1,3-diol] was tested. Which IC50 did it give?
A: 6180 nM

Q: `O[C@H]1CCCC[C@@H]1NCc1nc(-c2ccc(C(F)(F)F)nc2)ccc1F` [Example 122, (1S,2S)-2-({[5-fluoro-6′-(trifluoromethyl)-2,3′-bipyridin-6-yl]methyl}amino)cyclohexanol] was tested. Which IC50 did it give?
A: 3940 nM

Q: For `O[C@@H]1CCCC[C@@H]1NCc1nc(-c2ccc(C(F)(F)F)nc2)ccc1F` [Example 123, (1R,2S)-2-({[5-fluoro-6′-(trifluoromethyl)-2,3′-bipyridin-6-yl]methyl}amino)cyclohexanol], which IC50 is on record?
A: 8550 nM

Q: For `C=C(c1ccccc1)c1ccc(F)c(CN[C@@H](CO)C(C)C)n1` [Example 124, (2R)-2-({[3-fluoro-6-(1-phenylethenyl)pyridin-2-yl]methyl}amino)-3-methylbutan-1-ol], which IC50 is on record?
A: 920 nM

Q: For `C=C(c1ccc(F)cc1)c1ccc(F)c(CN[C@@H](CO)C(C)C)n1` [Example 125, (2R)-2-[({3-fluoro-6-[1-(4-fluorophenyl)ethenyl]pyridin-2-yl}methyl)amino]-3-methylbutan-1-ol], which IC50 is on record?
A: 1630 nM

Q: How did the IC50 turn out when `CC(C)[C@H](CO)NCc1nc(C2=CCCCC2)ccc1F` [Example 126, (2R)-2-({[6-(cyclohex-1-en-1-yl)-3-fluoropyridin-2-yl]methyl}amino)-3-methylbutan-1-ol] was run?
A: 740 nM

Q: With `CC(c1ccccc1)c1ccc(F)c(CN[C@@H](CO)C(C)C)n1` (stereo partly drawn) [Example 127, (2R)-2-({[3-fluoro-6-(1-phenylethyl)pyridin-2-yl]methyl}amino)-3-methylbutan-1-ol] as the compound, how does the IC50 read?
A: 1440 nM

Q: `CC(c1ccc(F)cc1)c1ccc(F)c(CN[C@@H](CO)C(C)C)n1` (stereo partly drawn) [Example 128, (2R)-2-[({3-fluoro-6-[1-(4-fluorophenyl)ethyl]pyridin-2-yl}methyl)amino]-3-methylbutan-1-ol] was tested. Which IC50 did it give?
A: 480 nM

Q: `C[C@@H](O)[C@H](NCc1nc(-c2ccc(C(F)(F)F)nc2)ccc1F)C(=O)Nc1ccc2ccccc2c1` [Example 130, N^2-{[5-fluoro-6′-(trifluoromethyl)-2,3′-bipyridin-6-yl]methyl}-N-naphthalen-2-yl-L-threoninamide] was tested. Which IC50 did it give?
A: 2550 nM

Q: Which IC50 does the source give for `CC(C)[C@H](CO)NCc1nc(-c2ccc(C(F)(F)F)cc2)ncc1F` [Example 131, (2R)-2-[({5-fluoro-2-[4-(trifluoromethyl)phenyl]pyrimidin-4-yl}methyl)amino]-3-methylbutan-1-ol] here?
A: 460 nM

Q: Which IC50 does the source give for `OCC1(NCc2ccnc(-c3ccc(C(F)(F)F)cc3)n2)CCC1` [Example 132, {1-[({2-[4-(trifluoromethyl)phenyl]pyrimidin-4-yl}methyl)amino]cyclobutyl}methanol] here?
A: > 20000 nM

Q: Which IC50 does the source give for `OCC1(NCc2ccnc(-c3ccc(C(F)(F)F)cc3)n2)CCCC1` [Example 133, {1-[({2-[4-(trifluoromethyl)phenyl]pyrimidin-4-yl}methyl)amino]cyclopentyl}methanol] here?
A: 9320 nM

Q: For `OCC1(NCc2ccnc(-c3ccc(C(F)(F)F)cc3)n2)CCCCC1` [Example 134, {1-[({2-[4-(trifluoromethyl)phenyl]pyrimidin-4-yl}methyl)amino]cyclohexyl}methanol], which IC50 is on record?
A: 11000 nM

Q: `OCC1(NCc2ccnc(-c3ccc(C(F)(F)F)cc3)n2)CC1` [Example 135, {1-[({2-[4-(trifluoromethyl)phenyl]pyrimidin-4-yl}methyl)amino]cyclopropyl}methanol] was tested. Which IC50 did it give?
A: > 20000 nM

Q: `CC(C)(CO)NCc1ccnc(-c2ccc(C(F)(F)F)cc2)n1` [Example 136, 2-methyl-2-[({2-[4-(trifluoromethyl)phenyl]pyrimidin-4-yl}methyl)amino]propan-1-ol] was tested. Which IC50 did it give?
A: > 20000 nM

Q: How did the IC50 turn out when `C[C@H](CO)NCc1ccnc(-c2ccc(C(F)(F)F)cc2)n1` [Example 137, (2R)-2-[({2-[4-(trifluoromethyl)phenyl]pyrimidin-4-yl}methyl)amino]propan-1-ol] was run?
A: 7830 nM

Q: For `CC[C@H](CO)NCc1ccnc(-c2ccc(C(F)(F)F)cc2)n1` [Example 138, (2R)-2-[({2-[4-(trifluoromethyl)phenyl]pyrimidin-4-yl}methyl)amino]butan-1-ol], which IC50 is on record?
A: 3050 nM

Q: With `OC[C@H](NCc1ccnc(-c2ccc(C(F)(F)F)cc2)n1)c1ccccc1` [Example 139, (2R)-2-phenyl-2-[({2-[4-(trifluoromethyl)phenyl]pyrimidin-4-yl}methyl)amino]ethanol] as the compound, how does the IC50 read?
A: 8080 nM

Q: How did the IC50 turn out when `OC[C@@H](Cc1ccccc1)NCc1ccnc(-c2ccc(C(F)(F)F)cc2)n1` [Example 140, (2R)-3-phenyl-2-[({2-[4-(trifluoromethyl)phenyl]pyrimidin-4-yl}methyl)amino]propan-1-ol] was run?
A: > 20000 nM
